“And” between values parts separate entries of the source, which are not always exact repeats. Identical values can stand only once.
Columns and labels:
HMC3-MHCII^Luc cells = assay: IFNγ-mediated microglial activation, MHCII-driven luciferase activity; type: cell-based, human; conditions: IFNγ 10 ng/ml; AATs 1, 10 or 25 μM day 0 to day 4
Experimental: • A) Human microglial cells HMC3-MHCII^Luc cells were plated at day 0, activated with IFNγ at day1 until day 2 and measurement of the luciferase activity and cell viability were done at day 4. • B) Activation was measured by the activity of MHCII-driven luciferase and normalized to cell viability. Luciferase activity for all conditions is represented as fold of the untreated control. A potential effect of the highest concentration of the buffer used for drug presentation (IFNγ, AATs) was precluded. All conditions were performed in triplicates, error bars represent standard deviation (FIGS. 1A and 1B).
(§1) • A) Human microglial HMC3-MHCII^Luc and HMC3MHCII^Luc; Ubi^AAT cells were plated at day 0, presented IFNγ at day 1 until day 2 and measurement of the luciferase activity and cell viability were done at day 4. • B) AATs were applied from day 0 to day 4 on HMC3-MHCII^Luc cells. Activation was measured by the activity of MHCII-driven luciferase and normalized to cell viability. […]
as §1, with “HMC3-MHCII^Luc” for “HMC3-MHCII^Luc and HMC3MHCII^Luc; Ubi^AAT”, “represented as percentage of IFNγ control for all conditions.” for “normalized to cell viability.”

CIDP mice = assay: Grip strength test, CIDP mouse model; type: in vivo; conditions: for Grip strength (Mean ± SD): CIDP mice; for Grip strength, group Mean: group mean of 4 animals; for Grip strength, Mean/animal: per animal; for Grip strength, Mean/animal / Grip strength, set 1 / Grip strength, set 2 / Grip strength, set 3: listed as hAAT; for Grip strength, set 1 / Grip strength, set 2 / Grip strength, set 3: raw data per animal
Experimental: C57BL/6 mice were received at 8 weeks of age and housed under controlled conditions for the duration of the study. Three groups of 4 animals each were assigned to the following subcutaneous treatments twice daily at 7:00 AM and 7:00 PM for 2 weeks, from 20 to 35 days after the start of disease induction: • Wild type (WT) mice receiving the vehicle, 0.9% NaCl (positive control) • CIDP mice receiving the vehicle, 0.9% NaCl (negative control) • CIDP mice receiving human AAT (AAT), 50 mg/kg per injection
Disease induction consisted in subcutaneous injection of mouse sciatic nerve homogenate in phosphate buffer saline (PBS)+Freund's adjuvant mixture at 10 mL/kg. For each treatment, 3 different body sites injections were performed. Control mice also received three subcutaneous injections of PBS+Freund's adjuvant at the same 3 different body sites.
On the first (Day 20) and last (Day 35) day of treatment, the neuromuscular and performance of animals was tested with a rotarod test, grip test and a sensory test using the Von Frey filament test, as well as sciatic nerve electrophysiology test. After the last treatment at Day 35, these tests were repeated, animals were sacrificed and the left sciatic nerve was sampled for histological evaluation of the number and size of […].

Substance: alpha1-antitrypsin (AAT) protein
- IFNγ-mediated microglial activation (MHCII-driven luciferase activity) (HMC3-MHCII^Luc cells): decreases
- grip strength compared to the vehicle treated group (CIDP mice; CIDP + AAT 50 mg/kg sc twice daily, Day 35): increase
- Grip strength (Mean ± SD) (CIDP mice; Day 20 (baseline)): 2.89 ± 0.32 newtons
- Grip strength (Mean ± SD) (CIDP mice; Day 35, AAT 50 mg/kg sc twice daily): 3.59 ± 0.35 newtons
- Grip strength, group Mean (CIDP mice; Baseline (Day 20)): 2.89 Newton
- Grip strength, group Mean (CIDP mice; Day 35): 3.59 Newton
- Grip strength, Mean/animal (CIDP mice; Baseline (Day 20)): 2.46 Newton and 3.19 Newton and 2.83 Newton and 3.08 Newton
- Grip strength, Mean/animal (CIDP mice; Day 35): 3.68 Newton and 3.69 Newton and 3.91 Newton and 3.10 Newton
- Grip strength, set 1 (CIDP mice; Baseline (Day 20)): 2.92 Newton and 3.06 Newton and 2.89 Newton and 3.50 Newton
- Grip strength, set 2 (CIDP mice; Baseline (Day 20)): 2.43 Newton and 2.09 Newton and 2.45 Newton and 2.62 Newton
- Grip strength, set 3 (CIDP mice; Baseline (Day 20)): 2.04 Newton and 4.42 Newton and 3.14 Newton and 3.13 Newton
- Grip strength, set 1 (CIDP mice; Day 35): 4.92 Newton and 4.55 Newton and 5.15 Newton and 3.47 Newton
- Grip strength, set 2 (CIDP mice; Day 35): 3.53 Newton and 2.00 Newton and 3.04 Newton and 2.61 Newton
- Grip strength, set 3 (CIDP mice; Day 35): 2.58 Newton and 4.52 Newton and 3.53 Newton and 3.23 Newton

— patent publication US20260028390A1, “ALPHA1-ANTITRYPSIN FOR USE IN THE TREATMENT OF DISEASES OR DISORDERS OF THE NERVOUS SYSTEM SUCH AS CHRONIC INFLAMMATORY DEMYELINATING POLYNEUROPATHY” (Ageronix SA, priority 2022, published 2026)
